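In this assay, cells in 96-well plates receive the compound at five concentrations for 48 hours. Endpoints are linearly interpolated between the surrounding concentrations. GI50: concentration for 50% inhibition of growth.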 Activity calls are given as the source filed them. Cut-off read from the data, not from the text of the source: active = GI50 up to about 1.1 µM and inactive = higher.
Assays:
Test in all cases: NCI tumour cell line growth inhibition, 48 h
[1] = tested on: CCRF-CEM
[2] = tested on: HCT-116
[3] = tested on: HOP-62
[4] = tested on: HOP-92
[5] = tested on: M14
[6] = tested on: NCI-H522
[7] = tested on: OVCAR-5
[8] = tested on: RXF 393
[9] = tested on: SF-268
[10] = tested on: SF-295
[11] = tested on: SF-539
[12] = tested on: SK-OV-3
[13] = tested on: SNB-19
[14] = tested on: SR
[15] = tested on: UACC-257
[16] = tested on: MDA-MB-231
[17] = tested on: MDA-N
[18] = tested on: PC-3
[19] = tested on: T47D

| SMILES | GI50 [1] | GI50 [2] | GI50 [3] | GI50 [4] | GI50 [5] | GI50 [6] | GI50 [7] | GI50 [8] | GI50 [9] | GI50 [10] | GI50 [11] | GI50 [12] | GI50 [13] | GI50 [14] | GI50 [15] | GI50 [16] | GI50 [17] | GI50 [18] | GI50 [19] |
| --- | --- | --- | --- | --- | --- | --- | --- | --- | --- | --- | --- | --- | --- | --- | --- | --- | --- | --- | --- |
| c1ccc(OCc2nnc3n2N=C(c2ccccc2)CS3)cc1 | > 100 µM (inactive) | > 100 µM (inactive) | > 100 µM (inactive) | > 100 µM (inactive) | > 100 µM (inactive) | 55.5 µM (inactive) | > 100 µM (inactive) | > 100 µM (inactive) | > 100 µM (inactive) | > 100 µM (inactive) | > 100 µM (inactive) | > 100 µM (inactive) | > 100 µM (inactive) | > 100 µM (inactive) | > 100 µM (inactive) | – | – | – | – |
| Nc1ncnc2c(C3OC(CO)C(O)C3O)scc12 (stereo unspecified) | 0.0597 µM (active) | 0.00885 µM (active) | 0.133 µM (active) | 0.0117 µM (active) | 0.00586 µM (active) | 0.0107 µM (active) | 0.0222 µM (active) | 0.222 µM (active) | 1.77 µM (inactive) | 0.129 µM (active) | 4.94 µM (inactive) | < 0.001 µM (active) | 1.38 µM (inactive) | 0.319 µM (active) | 0.0792 µM (active) | – | – | – | – |
| Cc1c(C2Cc3ccccc3N2C(=O)/C=C\C(=O)O)c2ccccc2n1C (stereo unspecified) | 30.8 µM (inactive) | 27.5 µM (inactive) | 27.6 µM (inactive) | 17.7 µM (inactive) | 17.8 µM (inactive) | 19.2 µM (inactive) | 48.4 µM (inactive) | 17.2 µM (inactive) | 18.7 µM (inactive) | 24.4 µM (inactive) | 21.6 µM (inactive) | 23.4 µM (inactive) | 17.4 µM (inactive) | 30.1 µM (inactive) | 16.2 µM (inactive) | – | – | – | – |
| O=C(Nc1cc(Cl)ccc1Cl)C(=O)C(c1cnc2ccccc2n1)[N+](=O)[O-] (stereo unspecified) | > 100 µM (inactive) | > 100 µM (inactive) | > 100 µM (inactive) | > 100 µM (inactive) | > 100 µM (inactive) | 85.1 µM (inactive) | > 100 µM (inactive) | > 100 µM (inactive) | > 100 µM (inactive) | > 100 µM (inactive) | > 100 µM (inactive) | > 100 µM (inactive) | > 100 µM (inactive) | > 100 µM (inactive) | > 100 µM (inactive) | – | – | – | – |
| COC(=O)C(C)(/N=C/c1ccccc1)c1ccccc1 (stereo unspecified) | > 100 µM (inactive) | > 100 µM (inactive) | > 100 µM (inactive) | > 100 µM (inactive) | > 100 µM (inactive) | > 100 µM (inactive) | > 100 µM (inactive) | > 100 µM (inactive) | > 100 µM (inactive) | > 100 µM (inactive) | > 100 µM (inactive) | > 100 µM (inactive) | > 100 µM (inactive) | > 100 µM (inactive) | > 100 µM (inactive) | > 100 µM (inactive) | > 100 µM (inactive) | > 100 µM (inactive) | > 100 µM (inactive) |
| O=[N+]([O-])c1ccc2nc(/C(=N\Nc3ccccc3)C(O)c3ccc4c(c3)OCO4)c(O)nc2c1 (stereo unspecified) | > 100 µM (inactive) | > 100 µM (inactive) | > 100 µM (inactive) | 11 µM (inactive) | > 100 µM (inactive) | 39 µM (inactive) | – | > 100 µM (inactive) | > 100 µM (inactive) | > 100 µM (inactive) | > 100 µM (inactive) | > 100 µM (inactive) | > 100 µM (inactive) | 91.6 µM (inactive) | > 100 µM (inactive) | – | – | – | – |
| CC1=CC(=O)N2[C@H](OC[C@@H]2C(C)C)O1 | > 100 µM (inactive) | > 100 µM (inactive) | > 100 µM (inactive) | > 100 µM (inactive) | > 100 µM (inactive) | > 100 µM (inactive) | – | > 100 µM (inactive) | > 100 µM (inactive) | > 100 µM (inactive) | > 100 µM (inactive) | > 100 µM (inactive) | > 100 µM (inactive) | > 100 µM (inactive) | > 100 µM (inactive) | – | – | – | – |
| CSC(SC)=C(C(=O)O)P(=O)(O)O | > 100 µM (inactive) | > 100 µM (inactive) | > 100 µM (inactive) | > 100 µM (inactive) | > 100 µM (inactive) | > 100 µM (inactive) | > 100 µM (inactive) | > 100 µM (inactive) | > 100 µM (inactive) | > 100 µM (inactive) | > 100 µM (inactive) | > 100 µM (inactive) | > 100 µM (inactive) | > 100 µM (inactive) | > 100 µM (inactive) | > 100 µM (inactive) | > 100 µM (inactive) | > 100 µM (inactive) | > 100 µM (inactive) |
